Assay results published in patent US9445589B2, “Active compounds combinations comprising a lipo-chitooligosaccharide derivative and a nematicide, insecticidal or fungicidal compound” (Bayer CropScience AG, priority 2012, dated 2016).

System: Maize seedlings
Assay: Maize seedlings shoot weight (seed treatment, greenhouse)
Assay type: in vivo
Description: Maize seeds are grown in loamy sand in the greenhouse at 20 C and 70% humidity for 11 days. After 11 days seedlings were cut off above the soil and fresh weight was determined. Compounds are applied at the following concentration: Poncho™ (pesticidal product comprising clothianidin as active ingredient): 250 μg of clothianidin/kernel; VOTiVO™ (product based on the natural soil bacteria Bacillus firmus (strain I-1582): 50 μg/kernel; Compound A of formula (I): 0.01 μg/kernel. The test is evaluated 11 days after the application. 100% means shoot weight which corresponds to that of the untreated control. Efficacy means in this case the additional % of shoot weight in comparison to that of the untreated control.

## CCCCCC/C=C\CCCOc1cccc(C(=O)N[C@@H]2C(O[C@H]3C(O)C(NC(C)=O)C(OC4C(CO)O[C@@H](O[C@H]5C(O)C(NC(C)=O)C(OC6C(CO)OC(O)[C@@H](NC(C)=O)[C@@H]6O)O[C@H]5CO)[C@@H](NC(C)=O)[C@@H]4O)O[C@H]3CO)OC(CO)[C@@H](O)[C@@H]2O)c1 (stereo partly drawn) [Compound A of formula (I)]
Additional % of shoot weight in comparison to untreated control, 11 days after application
  Efficacy %: 7%
Fresh weight after 11 days in loamy sand, greenhouse 20 C, 70% humidity, clothianidin 250 μg/kernel, VOTiVO 50 μg/kernel, Compound A 0.01 μg/kernel
  Seedling shoot weight (g) (Average on 3 replicates): 15.3 g
Shoot weight relative to untreated control (100%), 11 days after application, same application rates
  Found %: 107%
